Patent US10561655B2 (SYNBLia Therapeutics, Inc., priority 2018, dated 2020)
Where two headings read alike, the source gives them in different places.

How the values were obtained:
cells = test: Cell Proliferation Assay (CellTiter Glo); format: cell-based
Experimental: Firstly, the cells were seeded in 384-well cell culture plate and incubate overnight. The test compounds were added to the cell plate and incubated for 3-5 days. The cell plate was then detected using CellTiter Glo reagents.

Full length SHP2 enzyme = Full length SHP2 enzyme (Homo sapiens (Human), UniProt Q06124); test: SHP2 Phosphatase Assays; format: biochemical; conditions: full length SHP2 0.1 nM, 1 uM IRS-1 peptide, DiFMUP substrate, room temperature
Experimental: IC50 values were determined at room temperature in 384-well black polystyrene plate, using a final reaction volume of 15 μl and the following assay buffer conditions: 60 mM Hepes (pH=7.2), 75 mM NaCl, 75 mM KCl, and 1 mM EDTA, 0.05% P-20, 5 mM dithiothreitol (DTT). Full length SHP2 enzyme (diluted to 0.1 nM in reaction buffer) were co-incubated with 1 uM IRS-1 peptide and 0.01 nM to 10 μM compounds of the disclosure for 60 min. The surrogate substrate DiFMUP (5 μL, […]) was added, and incubated at rt for 60 min. The reaction was then quenched by the addition of 5 μL of a 40 μM solution of bpV(Phen). The fluorescence signal was monitored using a microplate reader (Envision, Perkin-Elmer) using excitation and emission wavelengths of 360 nm and 450 nm, respectively. The inhibitor dose-response curves were analyzed using normalized IC50 regression curve fitting with control-based normalization.

p-ERK/total ERK = p-ERK/total ERK Cellular Assay; format: cell-based
Experimental: p-ERK/total ERK Cellular Assay
Cells were seeded in 384-well cell culture plate and incubated overnight. Test compounds were added to the cell plate and the plate was incubated for 2-6 hours. To detect p-ERK, the cell plate was used AlphaLISA SureFire Ultra p-ERK kit; to detect total ERK, the cell plate was used total ERK HTRF kit. The plate was read on the Envision.

[1] = 3-5 days incubation, CellTiter Glo, read-out: IC50
[2] = p-ERK (AlphaLISA SureFire Ultra) / total ERK (HTRF), 2-6 hours incubation, read-out: IC50

| IC50 (Full length SHP2 enzyme) | IC50 (p-ERK/total ERK; [2]) | SMILES | IC50 (cells) | IC50 (p-ERK/total ERK) | IC50 (cells; [1]) |
| --- | --- | --- | --- | --- | --- |
| – | – | NC1COCC12CCN(c1ncc(Sc3cccc(Cl)c3Cl)[nH]c1=O)CC2 (centres unmarked) [Compound 10, 3-(4-amino-2-oxa-8-azaspiro[4.5]decan-8-yl)-6-((2,3-dichlorophenyl)thio)pyrazin-2(1H)-one] | < 5000 nM | < 100 nM | – |
| ≤ 50 nM | < 100 nM | C[C@@H]1OCC2(CCN(c3ncc(Sc4cccc(F)c4F)[nH]c3=O)CC2)[C@@H]1N [Compound 82, 3-((3S,4S)-4-amino-3-methyl-2-oxa-8-azaspiro[4.5]decan-8-yl)-6-((2,3-difluorophenyl)thio)pyrazin-2(1H)-one] | – | – | < 5000 nM |
| ≤ 50 nM | < 100 nM | CC1(CN)CCN(c2ncc(Sc3cccc(NC(=O)c4c(O)nc5n(c4=O)CCCC5)c3Cl)[nH]c2=O)CC1 [Compound 33, N-(3-((5-(4-(aminomethyl)-4-methylpiperidin-1-yl)-6-oxo-1,6-dihydropyrazin-2-yl)thio)-2-chlorophenyl)-2-hydroxy-4-oxo-6,7,8,9-tetrahydro-4H-pyrido[1,2-a]pyrimidine-3-carboxamide] | – | – | – |
| ≤ 50 nM | – | Cn1c(N2CCC(C)(CN)C2)nc(N)c(Sc2cccc(Cl)c2Cl)c1=O (centres unmarked) [Compound 52, 6-amino-2-(3-(aminomethyl)-3-methylpyrrolidin-1-yl)-5-((2,3-dichlorophenyl)thio)-3-methylpyrimidin-4(3H)-one] | – | – | – |
| ≤ 50 nM | < 100 nM | N[C@@H]1COCC12CCN(c1ncc(Sc3cccc(Cl)c3Cl)[nH]c1=O)CC2 [Compound 73, (S)-3-(4-amino-2-oxa-8-azaspiro[4.5]decan-8-yl)-6-((2,3-dichlorophenyl)thio)pyrazin-2(1H)-one] | – | – | < 5000 nM |
| ≤ 50 nM | < 100 nM | C[C@@H]1OCC2(CCN(c3ncc(Sc4ccnc(F)c4Cl)[nH]c3=O)CC2)[C@@H]1N [Compound 83, 3-((3S,4S)-4-amino-3-methyl-2-oxa-8-azaspiro[4.5]decan-8-yl)-6-((3-chloro-2-fluoropyridin-4-yl)thio)pyrazin-2(1H)-one] | – | – | < 1000 nM |
| – | < 100 nM | CC1(CN)CCN(c2ncc(Sc3cccc(NC(=O)c4c(O)nc5cnccn5c4=O)c3Cl)[nH]c2=O)CC1 [Compound 30, N-(3-((5-(4-(aminomethyl)-4-methylpiperidin-1-yl)-6-oxo-1,6-dihydropyrazin-2-yl)thio)-2-chlorophenyl)-2-hydroxy-4-oxo-4H-pyrazino[1,2-a]pyrimidine-3-carboxamide] | – | – | – |
| ≤ 50 nM | < 100 nM | C[C@@H]1OCC2(CCN(c3ncc(Sc4cccc(F)c4Cl)[nH]c3=O)CC2)[C@@H]1N [Compound 109, 3-((3S,4S)-4-amino-3-methyl-2-oxa-8-azaspiro[4.5]decan-8-yl)-6-((2-chloro-3-fluorophenyl)thio)pyrazin-2(1H)-one] | – | – | < 5000 nM |
| ≤ 50 nM | < 500 nM | CC1(CN)CCN(c2nc3[nH]nc(Oc4cccc(Cl)c4Cl)c3c(=O)[nH]2)CC1 [Compound 35, 6-(4-(aminomethyl)-4-methylpiperidin-1-yl)-3-(2,3-dichlorophenoxy)-1,5-dihydro-4H-pyrazolo[3,4-d]pyrimidin-4-one] | – | – | – |
| ≤ 50 nM | < 100 nM | C[C@@H]1OCC2(CCN(c3ncc(Sc4ccnc(F)c4F)[nH]c3=O)CC2)[C@@H]1N [Compound 84] | – | – | < 1000 nM |
| ≤ 50 nM | – | N[C@@H]1c2ccccc2CC12CCN(c1ncc(Sc3cccc(Cl)c3Cl)[nH]c1=O)CC2 [Compound 108, (S)-3-(1-amino-1,3-dihydrospiro[indene-2,4′-piperidin]-1′-yl)-6-((2,3-dichlorophenyl)thio)pyrazin-2(1H)-one] | – | – | – |
| ≤ 50 nM | – | C[C@@H]1OCC2(CCN(c3ncc(Sc4cc[nH]c(=O)c4Cl)[nH]c3=O)CC2)[C@@H]1N [Compound 107, 3-((3S,4S)-4-amino-3-methyl-2-oxa-8-azaspiro[4.5]decan-8-yl)-6-((3-chloro-2-oxo-1,2-dihydropyridin-4-yl)thio)pyrazin-2(1H)-one] | – | – | – |
| ≤ 50 nM | – | N[C@@H]1c2ccccc2OC12CCN(c1ncc(Sc3cccc(Cl)c3Cl)[nH]c1=O)CC2 [Compound 87, (R)-3-(3-amino-3H-spiro[benzofuran-2,4′-piperidin]-1′-yl)-6-((2,3-dichlorophenyl)thio)pyrazin-2(1H)-one] | – | – | – |
| ≤ 50 nM | – | NC1CCCC(n2ccc(-c3cccc(Cl)c3Cl)cc2=O)C1 (centres unmarked) [Compound 74, 1-(3-aminocyclohexyl)-4-(2,3-dichlorophenyl)pyridin-2(1H)-one] | – | – | – |
| ≤ 50 nM | < 500 nM | CC1(CN)CCN(c2nc3[nH]nc(Nc4cccc(Cl)c4Cl)c3c(=O)[nH]2)CC1 [Compound 34, 6-(4-(aminomethyl)-4-methylpiperidin-1-yl)-3-((2,3-dichlorophenyl)amino)-1,5-dihydro-4H-pyrazolo[3,4-d]pyrimidin-4-one] | – | – | – |
| ≤ 50 nM | < 100 nM | CC1(CN)CCN(c2ncc(Sc3cccc(NC(=O)c4c(O)nc5ccccn5c4=O)c3Cl)[nH]c2=O)CC1 [Compound 29, N-(3-((5-(4-(aminomethyl)-4-methylpiperidin-1-yl)-6-oxo-1,6-dihydropyrazin-2-yl)thio)-2-chlorophenyl)-2-hydroxy-4-oxo-4H-pyrido[1,2-a]pyrimidine-3-carboxamide] | – | – | < 5000 nM |
| ≤ 50 nM | – | CC1(CN)CCN(c2ncc(Sc3cccc(NC(=O)c4c(O)nc5[nH]ccn5c4=O)c3Cl)[nH]c2=O)CC1 [Compound 32, N-(3-((5-(4-(aminomethyl)-4-methylpiperidin-1-yl)-6-oxo-1,6-dihydropyrazin-2-yl)thio)-2-chlorophenyl)-7-hydroxy-5-oxo-1,5-dihydroimidazo[1,2-a]pyrimidine-6-carboxamide] | – | – | – |
| ≤ 50 nM | – | N[C@@H]1COCC12CCN(c1ncc(Sc3ccnc(Cl)c3Cl)[nH]c1=O)CC2 [Compound 88, (S)-3-(4-amino-2-oxa-8-azaspiro[4.5]decan-8-yl)-6-((2,3-dichloropyridin-4-yl)thio)pyrazin-2(1H)-one] | – | – | – |
| ≤ 50 nM | < 100 nM | C[C@@H]1OCC2(CCN(c3ncc(Sc4cccc(Cl)c4Cl)[nH]c3=O)CC2)[C@@H]1N [Compound 14] | – | – | < 1000 nM |
| ≤ 50 nM | – | C[C@@H]1OCC2(CCN(c3ncc(Sc4ccnc(N)c4Cl)[nH]c3=O)CC2)[C@@H]1N [Compound 77, 6-((2-amino-3-chloropyridin-4-yl)thio)-3-((3S,4S)-4-amino-3-methyl-2-oxa-8-azaspiro[4.5]decan-8-yl)pyrazin-2(1H)-one] | – | – | – |
| ≤ 50 nM | < 100 nM | COc1cccc(Sc2cnc(N3CCC4(CC3)CO[C@@H](C)[C@H]4N)c(=O)[nH]2)c1Cl [Compound 79, 3-((3S,4S)-4-amino-3-methyl-2-oxa-8-azaspiro[4.5]decan-8-yl)-6-((2-chloro-3-methoxyphenyl)thio)pyrazin-2(1H)-one] | – | – | – |
| ≤ 50 nM | < 100 nM | COc1nccc(Sc2cnc(N3CCC4(CC3)CO[C@@H](C)[C@H]4N)c(=O)[nH]2)c1Cl [Compound 80, 3-((3S,4S)-4-amino-3-methyl-2-oxa-8-azaspiro[4.5]decan-8-yl)-6-((3-chloro-2-methoxypyridin-4-yl)thio)pyrazin-2(1H)-one] | – | – | – |
| ≤ 50 nM | < 100 nM | CC1(CN)CCN(c2ncc(Sc3cccc(NC(=O)c4c(O)nc5sccn5c4=O)c3Cl)[nH]c2=O)CC1 [Compound 31, N-(3-((5-(4-(aminomethyl)-4-methylpiperidin-1-yl)-6-oxo-1,6-dihydropyrazin-2-yl)thio)-2-chlorophenyl)-7-hydroxy-5-oxo-5H-thiazolo[3,2-a]pyrimidine-6-carboxamide] | – | – | < 5000 nM |
| ≤ 50 nM | – | NC1C2CN(c3ncc(Sc4cccc(Cl)c4Cl)[nH]c3=O)CC12 (centres unmarked) [Compound 86, 3-(6-amino-3-azabicyclo[3.1.0]hexan-3-yl)-6-((2,3-dichlorophenyl)thio)pyrazin-2(1H)-one] | – | – | – |
| ≤ 50 nM | – | NC1C2CC2CC12CCN(c1ncc(Sc3cccc(Cl)c3Cl)[nH]c1=O)CC2 (centres unmarked) [Compound 13, 3-(2-aminospiro[bicyclo[3.1.0]hexane-3,4′-piperidin]-1′-yl)-6-((2,3-dichlorophenyl)thio)pyrazin-2(1H)-one] | – | – | – |
| ≤ 50 nM | < 100 nM | C[C@@H]1OCC2(CCN(c3ncc(Sc4ccnc(Cl)c4Cl)[nH]c3=O)CC2)[C@@H]1N [Compound 81, 3-((3S,4S)-4-amino-3-methyl-2-oxa-8-azaspiro[4.5]decan-8-yl)-6-((2,3-dichloropyridin-4-yl)thio)pyrazin-2(1H)-one] | – | – | < 1000 nM |

| SMILES | IC50 (Full length SHP2 enzyme) | IC50 (p-ERK/total ERK; [2]) | IC50 (cells) | IC50 (p-ERK/total ERK) | IC50 (cells; [1]) |
| --- | --- | --- | --- | --- | --- |
| CC1(CN)CCN(c2ncc(Sc3cccc(Cl)c3Cl)[nH]c2=O)CC1 [Compound 2, 3-(4-(aminomethyl)-4-methylpiperidin-1-yl)-6-((2,3-dichlorophenyl)thio)pyrazin-2(1H)-one] | ≤ 50 nM | – | < 5000 nM | < 500 nM | – |
